Entries after “also recorded” stand apart in the source; their conditions may differ. Where two headings read alike, the source gives them in different places.
Tests used:
rats [1] = assay: Vogel punished drinking test, conflict paradigm (anticonflict effect); assay type: in vivo; conditions: Rattus norvegicus, iv, 0.25 h; i.v., 15 min before test, shock 0.8 mA; fiducial limits on following line
rats [2] = assay: Vogel punished drinking test with PTZ, proconflict paradigm (anti-proconflict effect, anti-proconflict index); assay type: in vivo, rat; conditions: for ED50: Rattus norvegicus, iv, 0.25 h, i.v., 15 min before test, PTZ i.p., shock 0.35 mA, fiducial limits on following line; for anti-proconflict index: ratio of ED50 values anticonflict/antiproconflict; for antiproconflict index compared with reference compounds: in words, vs Bretazenil, prior art compound or diazepam
[3] = Duration of action at doses equipotent to Bretazenil; assay type: in vivo
rats [4] = conditions: background, cited from earlier work; for potency in antagonizing conflict and proconflict responses: in words; for anti-proconflict index: Giusti et al. 1991
rats [5] = assay: Chemical kindling with pentylenetetrazole (PTZ), kindled seizures; assay type: in vivo, rat; conditions: per os; for ED50 vs kindled seizures: 30 min before PTZ 30 mg/kg i.p., n 25; for potency relative to diazepam in kindling seizure test: PTZ kindling
Protocol: Kindled seizures were induced in rats by i.p. injection of 30 mg/kg of PTZ every 2nd day for 9 weeks.

rats [6] = assay: Development of tolerance to the anticonvulsant effect against bicuculline seizures; assay type: in vivo, rat; conditions: oral; for development of tolerance to anticonvulsant action: 3 times daily up to 70 days, in words
Protocol: The bicuculline seizure test (see Massotti et al., J. Pharmacol. Exp. Ther. 256: 1154-1156, 1991) consists in infusing a bicuculline solution (0.27 μmol/kg) into the rat tail vein at a constant rate (0.46 ml/min) and records the first sign of myoclonic jerk and the full myoclonic convulsion. The dose of bicuculline required to elicit these responses was taken as an index of the efficacy of diazepam and inventive compounds against seizures induced by a decrease of GABAergic tone (Massotti et al., J. Pharmacol. Exp. Ther. 256: 1154-1160, 1990). […] Possible development of tolerance to the antagonism of bicuculline convulsion was tested on various days after the beginning of the protracted treatment with the inventive compounds.

rats [7] = conditions: background, in words; cited from earlier work
[8] = background, in words; cited from earlier work

Row | SMILES | ED50 (rats [1]) | ED50 (rats [2]) | anti-proconflict index (rats [2]) | anti-proconflict index (rats [4]) | antiproconflict index compared with reference compounds (rats [2]) | potency relative to diazepam in kindling seizure test (rats [5]) | also measured
1 | NC(=O)c1ncn2c1CN=C(c1ccccc1Cl)c1cc(Cl)ccc1-2 [8-chloro-6-(2-chlorophenyl) -4H-imidazo-[1,5-a][1,4]benzodiazepine-3-carboxamide, reference compound] | 2 µmol/kg | 0.45 µmol/kg | 5.0 |  |  |  | 
2 | CC(C)(C)OC(=O)c1ncn2c1[C@@H]1CCCN1C(=O)c1c(Br)cccc1-2 [Bretazenil, reference compound] | 2.4 µmol/kg | 0.2 µmol/kg | 12 | ~10 |  |  | duration of action ([3]; Bretazenil, equipotent dose): 0.25 to 0.75 h; potency in antagonizing conflict and proconflict responses (rats [4]): surpassed those of the anxiolytic BZD ligands diazepam, zolpidem, alpidem, and midazolam; also recorded: significantly more potent in antagonizing the proconflict effect
3 | CN1C(=O)CN=C(c2ccccc2)c2cc(Cl)ccc21 [Diazepam, reference compound] | 2 µmol/kg | 1.9 µmol/kg | 1 | ~1 |  |  | ED50 vs kindled seizures (rats [5]): 5.7 (2.9-11.2); development of tolerance to anticonvulsant action (rats [6]): developed after a few days of treatment; prevention of development of kindling seizures (rats [7]): powerful agents to prevent the development of seizures; development of tolerance in chronic maintenance therapy [8]: rapid development of tolerance
4 | NC(=O)c1ncn2c1CN=C(c1ccccc1Br)c1cc(F)ccc1-2 [Example 9, 6-(2-Bromophenyl)-8-fluoro-4H-imidazo[1,5-a][1,4]benzodiazepine-3-carboxamide] | 2.9 µmol/kg | 0.061 µmol/kg | 48 |  | antiproconflict index larger than that of Bretazenil | approximately 20 fold | ED50 vs kindled seizures (rats [5]): 0.25 (.071-0.883); days of treatment without anticonvulsant tolerance (rats [6]; 3 times daily): ≥ 70 days; development of tolerance to anticonvulsant action (rats [6]): maintained its anticonvulsant effect unabated without tolerance
5 | CCNC(=O)c1ncn2c1CN=C(c1ccccc1Br)c1cc(F)ccc1-2 [Example 10, 6-(2-Bromophenyl)-N-ethyl-8-fluoro-4H-imidazo[1,5-a][1,4]-benzodiazepine-3-carboxamide] | 2.8 µmol/kg | 0.079 µmol/kg | 35 |  | antiproconflict index larger than that of Bretazenil | 12 fold | 
6 | CCCNC(=O)c1ncn2c1CN=C(c1ccccc1Br)c1cc(F)ccc1-2 [Example 11(a)] | 2.74 µmol/kg | 0.44 µmol/kg |  |  | better than diazepam | 2.2 fold | duration of action ([3]; equipotent doses to Bretazenil): 3 to 6 h
7 | CC(C)NC(=O)c1ncn2c1CN=C(c1ccccc1Br)c1cc(F)ccc1-2 [Example 11(b), 6-(2-Bromophenyl)-8-fluoro-N-(1-methylethyl)-4-H-imidazo[1,5-a][1,4]benzodiazepine-3-carboxamide] | 1.72 µmol/kg | 0.52 µmol/kg |  |  | better than diazepam | 2.5 fold | duration of action ([3]; equipotent doses to Bretazenil): 3 to 6 h
8 | C=CCNC(=O)c1ncn2c1CN=C(c1ccccc1Br)c1cc(F)ccc1-2 [Example 11(c), 6-(2-Bromophenyl)-8-fluoro-N-(2-propenyl)-4H-imidazo[1,5-a][1,4]benzodiazepine-3-carboxamide] | 3.6 µmol/kg | 0.18 µmol/kg | 20 |  | antiproconflict index larger than that of Bretazenil |  | 
9 | O=C(NCC1CC1)c1ncn2c1CN=C(c1ccccc1Br)c1cc(F)ccc1-2 [Example 11(d), 6-(2-Bromophenyl)-N-[(cyclopropyl)methyl]-8-fluoro-4H-imidazo[1,5-a][1,4]benzodiazepine-3-carboxamide] | 3.3 µmol/kg | 0.43 µmol/kg |  |  | better than diazepam | 2 fold | duration of action ([3]; equipotent doses to Bretazenil): 3 to 6 h
10 | CCCN(CCC)C(=O)Cc1c(-c2ccc(Cl)cc2)nc2ccc(Cl)cn12 [alpidem] |  |  |  | ~1 |  |  | 
11 | Cc1nnc2n1-c1ccc(Cl)cc1C(c1ccccc1)=NC2 [alprazolam] |  |  |  | ~10 |  |  | potency in antagonizing conflict and proconflict responses (rats [4]): surpassed those of the anxiolytic BZD ligands diazepam, zolpidem, alpidem, and midazolam; also recorded: significantly more potent in antagonizing the proconflict effect
12 | O=C1CN=C(c2ccccc2Cl)c2cc([N+](=O)[O-])ccc2N1 [clonazepam] |  |  |  | ~10 |  |  | potency in antagonizing conflict and proconflict responses (rats [4]): surpassed those of the anxiolytic BZD ligands diazepam, zolpidem, alpidem, and midazolam; also recorded: significantly more potent in antagonizing the proconflict effect; prevention of development of kindling seizures (rats [7]): powerful agents to prevent the development of seizures; development of tolerance in chronic maintenance therapy [8]: rapid development of tolerance
13 | Cc1ncc2n1-c1ccc(Cl)cc1C(c1ccccc1F)=NC2 [midazolam] |  |  |  | ~1 |  |  | 
14 | Cc1ccc(-c2nc3ccc(C)cn3c2CC(=O)N(C)C)cc1 [zolpidem] |  |  |  | ~1 |  |  | 
